Target: T1, RNA-editing ligase 1, mitochondrial (Trypanosoma brucei brucei, UniProt P86926)
T1 sequence (P86926 whole entry): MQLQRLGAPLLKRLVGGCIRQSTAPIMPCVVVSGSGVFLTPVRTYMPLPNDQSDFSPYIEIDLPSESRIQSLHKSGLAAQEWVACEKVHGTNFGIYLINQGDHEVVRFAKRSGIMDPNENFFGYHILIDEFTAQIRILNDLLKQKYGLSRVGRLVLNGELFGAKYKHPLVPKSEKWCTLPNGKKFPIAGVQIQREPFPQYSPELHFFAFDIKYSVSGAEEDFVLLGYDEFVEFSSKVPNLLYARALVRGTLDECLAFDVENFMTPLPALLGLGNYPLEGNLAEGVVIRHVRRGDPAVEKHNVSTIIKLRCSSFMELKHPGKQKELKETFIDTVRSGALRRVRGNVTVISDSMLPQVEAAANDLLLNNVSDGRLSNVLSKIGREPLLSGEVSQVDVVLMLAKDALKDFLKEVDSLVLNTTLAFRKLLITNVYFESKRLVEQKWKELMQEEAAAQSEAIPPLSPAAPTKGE
Assay: TbREL1 ligase inhibitors, dose response, biochemical, fluorescence, Trypanosoma brucei (AID 1117295)

Compound | IC50 [µM]
NC(=NNC=c1ccc(=C2C=CC(=O)C(C(=O)O)=C2)o1)N[N+](=O)[O-] [5-(5-{2-[amino(nitroimino)methyl]carbonohydrazonoyl}-2-furyl)-2-hydroxybenzoic acid] | 21.2
COc1ccc(Cn2c(Nc3cc(Cl)ccc3OC)c3[nH]cccc-3c2=O)cc1 [7-[(5-chloranyl-2-methoxy-phenyl)amino]-6-[(4-methoxyphenyl)methyl]-7H-pyrrolo[3,4-b]pyridin-5-one] | 16.1
Oc1ccccc1CN=Nc1cc(N2CCCC2)nc(N2CCCC2)n1 [(6E)-6-[[[2,6-bis(1-pyrrolidinyl)-4-pyrimidinyl]hydrazo]methylidene]-1-cyclohexa-2,4-dienone] | > 96.6
